The values below come from US10888099B2, “Granulation of a Stevia sweetener” (PureCircle Sdn Bhd, priority 2009, dated 2021).

Where two headings read alike, the source gives them in different places. Where a SMILES comes first, the peptide text is derived from it.

For data set [1] the following is noted: standard sweetening power, Saccharose = 1; cited from earlier work.
For data set [2] the following is noted: cited from earlier work; for solubility: known Rebaudioside A forms, g soluble in 100 g solvent.
For data set [3] the following is noted: cited from earlier work.
The format of data set [4] is physicochemical. Here is the method: Hereinafter, unless specified otherwise, the solubility of a material is determined in reverse osmosis water at room temperature. […] The obtained powder was loaded into a 1000 L rotary vacuum dryer and dried at 105° C. at 10 mbar pressure for 3 hours. After 3 hours, preheated nitrogen at 100° C. was introduced into the vacuum chamber till ambient pressure was reached. Upon reaching ambient pressure, the vacuum dryer was connected to a vent and the nitrogen flow was continued at 100 L/min for a 4-hour time period. […] A sample of the powder was withdrawn from the dryer and the solubility tested in deionized water at room temperature.

With `CC1=CC(=O)NS(=O)(=O)O1` [Acesulfame-K], the Sweetness power in data set [1] was 200.
As to `C[C@@H](NC(=O)[C@@H](N)CC(=O)O)C(=O)NC1C(C)(C)SC1(C)C` [Alitame], the Sweetness power in data set [1] was 2000.
Turning to `COC(=O)[C@H](Cc1ccccc1)NC(=O)[C@@H](N)CC(=O)O` [Aspartame] (H-Asp-Phe-OMe), the Sweetness power in data set [1] was 200.
With `C=C1C[C@@]23CC[C@H]4[C@@](C)(CCC[C@@]4(C)C(=O)O[C@@H]4O[C@H](CO)[C@@H](O)[C@H](O)[C@H]4O)[C@@H]2CC[C@]1(O[C@@H]1O[C@H](CO)[C@@H](O)[C@H](O[C@@H]2O[C@H](CO)[C@@H](O)[C@H](O)[C@H]2O)[C@H]1O[C@@H]1O[C@H](CO)[C@@H](O)[C@H](O)[C@H]1O)C3` [Form 1, Rebaudioside A], in data set [2] (compared among Rebaudioside A forms), the “solubility (in words)” value was “lowest solubility”. For the same molecule, the solubility result in data set [2] (listed as hydrate form) is listed as “less than 0.2%”. Besides, the “Rate of dissolution in H2O at 25° C.” value is reported as “Very low” in data set [3] (grade in words) and “(<0.2% in” in data set [3] (in 60 minutes).
On to `C=C1C[C@@]23CC[C@H]4[C@@](C)(CCC[C@@]4(C)C(=O)O[C@@H]4O[C@H](CO)[C@@H](O)[C@H](O)[C@H]4O)[C@@H]2CC[C@]1(O[C@@H]1O[C@H](CO)[C@@H](O)[C@H](O[C@@H]2O[C@H](CO)[C@@H](O)[C@H](O)[C@H]2O)[C@H]1O[C@@H]1O[C@H](CO)[C@@H](O)[C@H](O)[C@H]1O)C3` [Form 2, Rebaudioside A], for which the solubility entry in data set [2] (listed as anhydrous form of Rebaudioside A) and in data set [2] (listed as anhydrous form) was “up to 30%” throughout. Also, the “Rate of dissolution in H2O at 25° C.” value was “Intermediate” in data set [3] (grade in words) and “(<30% in 5” in data set [3] (in 5 minutes).
For the molecule `C=C1C[C@@]23CC[C@H]4[C@@](C)(CCC[C@@]4(C)C(=O)O[C@@H]4O[C@H](CO)[C@@H](O)[C@H](O)[C@H]4O)[C@@H]2CC[C@]1(O[C@@H]1O[C@H](CO)[C@@H](O)[C@H](O[C@@H]2O[C@H](CO)[C@@H](O)[C@H](O)[C@H]2O)[C@H]1O[C@@H]1O[C@H](CO)[C@@H](O)[C@H](O)[C@H]1O)C3` [Form 3, Rebaudioside A], the solubility entry in data set [2] (listed as solvate form) is listed as “greater than 30%”. For the same molecule, the entries for the “Rate of dissolution in H2O at 25° C.” value in data set [3] (grade in words) and in data set [3] (in 5 minutes) were “High” and “(>30% in”, respectively.
Consider `C=C1C[C@@]23CC[C@H]4[C@@](C)(CCC[C@@]4(C)C(=O)O[C@@H]4O[C@H](CO)[C@@H](O)[C@H](O)[C@H]4O)[C@@H]2CC[C@]1(O[C@@H]1O[C@H](CO)[C@@H](O)[C@H](O[C@@H]2O[C@H](CO)[C@@H](O)[C@H](O)[C@H]2O)[C@H]1O[C@@H]1O[C@H](CO)[C@@H](O)[C@H](O)[C@H]1O)C3` [Form 4, Rebaudioside A], for which the solubility result in data set [2] (listed as amorphous form) is “greater than 35%”. The “Rate of dissolution in H2O at 25° C.” value in data set [3] (grade in words) is reported as “High”; in data set [3] (in 5 minutes), “(>35% in”.
Turning to `CC1(C)[C@@H](O[C@H]2O[C@H](C(=O)O)[C@@H](O)[C@H](O)[C@H]2O[C@@H]2O[C@H](C(=O)O)[C@@H](O)[C@H](O)[C@H]2O)CC[C@]2(C)[C@H]3C(=O)C=C4[C@@H]5C[C@@](C)(C(=O)O)CC[C@]5(C)CC[C@@]4(C)[C@]3(C)CC[C@@H]12` [Glycyrrhizin], the Sweetness power in data set [1] is given as 50.
For `COc1ccc(CCC(=O)c2c(O)cc(O[C@@H]3O[C@H](CO)[C@@H](O)[C@H](O)[C@H]3O[C@@H]3O[C@@H](C)[C@H](O)[C@@H](O)[C@H]3O)cc2O)cc1O` [NHDC, neohesperidin dihydrochalcone], in data set [1], the Sweetness power is 1000.
Molecule `C=C1C[C@@]23CC[C@H]4[C@@](C)(CCC[C@@]4(C)C(=O)O[C@@H]4O[C@H](CO)[C@@H](O)[C@H](O)[C@H]4O)[C@@H]2CC[C@]1(O[C@@H]1O[C@H](CO)[C@@H](O)[C@H](O[C@@H]2O[C@H](CO)[C@@H](O)[C@H](O)[C@H]2O)[C@H]1O[C@@H]1O[C@H](CO)[C@@H](O)[C@H](O)[C@H]1O)C3` [Rebaudioside A] returned a solubility in data set [4] of 1.6%. Also, the Sweetness power in data set [1] is 450.
With `O=C1NS(=O)(=O)c2ccccc21` [Saccharine], in data set [1], the Sweetness power is reported as 300.
Turning to `OC[C@H]1O[C@@](CO)(O[C@H]2O[C@H](CO)[C@@H](O)[C@H](O)[C@H]2O)[C@@H](O)[C@@H]1O` [Saccharose], the Sweetness power in data set [1] is 1.
In the case of `C=C1C[C@@]23CC[C@H]4[C@@](C)(CCC[C@@]4(C)C(=O)O[C@@H]4O[C@H](CO)[C@@H](O)[C@H](O)[C@H]4O)[C@@H]2CC[C@]1(O[C@@H]1O[C@H](CO)[C@@H](O)[C@H](O)[C@H]1O[C@@H]1O[C@H](CO)[C@@H](O)[C@H](O)[C@H]1O)C3` [Stevioside], the Sweetness power in data set [1] is 200.
For `OC[C@H]1O[C@H](O[C@]2(CCl)O[C@H](CCl)[C@@H](O)[C@@H]2O)[C@H](O)[C@@H](O)[C@H]1Cl` [Sucralose], in data set [1], the Sweetness power is listed as 600.
On to `C=C1C[C@@]23CC[C@H]4[C@@](C)(CCC[C@@]4(C)C(=O)O[C@@H]4O[C@H](CO)[C@@H](O)[C@H](O)[C@H]4O)[C@@H]2CC[C@]1(O[C@@H]1O[C@H](CO)[C@@H](O)[C@H](O[C@@H]2O[C@H](CO)[C@@H](O)[C@H](O)[C@H]2O)[C@H]1O[C@@H]1O[C@H](CO)[C@@H](O)[C@H](O)[C@H]1O)C3` [high solubility Rebaudioside A powder, Rebaudioside A], for which the dissolution time in data set [4] (deionized water at room temperature) was determined as 7 min.
With Thaumatin, the Sweetness power in data set [1] was 3000.
